Several values for one entry are separate records, joined by “and”; a condition that tells them apart may be missing. Equal values may be shown once.
Columns and labels:
[1] = biological target: T1, rat histamine H3 receptor (Rattus norvegicus, UniProt Q9QYN8); test: In vitro saturation radioligand binding to rat brain homogenates
T1 construct: from tissue; host or cells: whole brain of male Sprague-Dawley rats, homogenate pellet
Description: Animals (male Sprague-Dawley rats; Harlan, UK) were killed by cervical dislocation. Whole brains were immediately excised and placed into ice-cold Tris-HCl buffer (Tris […], pH 7.4; EDTA 5 mM), homogenised and centrifuged at approx 40,000 g for 10 min at 4°C (Beckman J2-21M/E). The pellet was resuspended in 25 ml of buffer and centrifuged as previously, then the final pellet was resuspended in 10 ml of ice cold Tris buffer and stored at −50°C until required. Protein content was analysed using Bio-Rad reagent; absorbance was read on a spectrophotometer at 562 nm. [^125I]WYE230949 binding assays were carried out in a final incubation volume of 500 µl containing Tris-HCl buffer (Tris […], pH 7.4; EDTA 5 mM), brain homogenates (1.47 to 2.27 mg/ml of protein) and [^125I]WYE230949 (0.04–102 nM). Non-specific binding was defined in the presence of 10 µM iodophenpropit. Samples were incubated at 30°C for 30 min, then filtered rapidly through Whatman GF/B filters (pre-treated with 0.3% polyethylenimine; Aldrich, UK) using a Brandel M24R cell harvester and the filters washed with 3×4 ml ice-cold Tris buffer. Radioactivity on the filters was determined by liquid scintillation counting a minimum of 48 h after filtration. All assays were performed in triplicate. Specific binding was determined by subtracting non-specific binding from total binding at each concentration; Kd and Bmax values derived using GraphPad Prism (version 4.03), and expressed as mean ±SEM of the triplicate assays.

[2] = Partition and distribution co-efficients (logP and logD), shake-flask method; assay type: physicochemical
Description: The lipophilicity of [^125I]WYE-230949 was determined in octanol/water and at physiological pH using a modification of the shake-flask method. […] The radioactivity incorporated in both phases was determined using a gamma counter (Cobra Gamma Counter, Packard, Perkin Elmer Life and Analytical Sciences, Boston, MA, USA). The assay was performed in triplicate on 3 separate occasions. LogP was calculated to be log [counts in octanol/counts in water] and logD was calculated to be log [counts in octanol/counts in pH 7.4 buffer].

histamine H3 receptor [3] = biological target: T2, histamine H3 receptor (Rattus norvegicus, UniProt Q9QYN8); test: In vitro autoradiography on rat brain sections; assay type: binding; details: 5 nM radioligand, non-specific with 5 µM iodophenpropit
T2 construct: Sections (20 µm) cut from a frozen rat brain were pre-incubated in Tris-HCl buffer; from tissue
T2 sequence (Q9QYN8 whole entry): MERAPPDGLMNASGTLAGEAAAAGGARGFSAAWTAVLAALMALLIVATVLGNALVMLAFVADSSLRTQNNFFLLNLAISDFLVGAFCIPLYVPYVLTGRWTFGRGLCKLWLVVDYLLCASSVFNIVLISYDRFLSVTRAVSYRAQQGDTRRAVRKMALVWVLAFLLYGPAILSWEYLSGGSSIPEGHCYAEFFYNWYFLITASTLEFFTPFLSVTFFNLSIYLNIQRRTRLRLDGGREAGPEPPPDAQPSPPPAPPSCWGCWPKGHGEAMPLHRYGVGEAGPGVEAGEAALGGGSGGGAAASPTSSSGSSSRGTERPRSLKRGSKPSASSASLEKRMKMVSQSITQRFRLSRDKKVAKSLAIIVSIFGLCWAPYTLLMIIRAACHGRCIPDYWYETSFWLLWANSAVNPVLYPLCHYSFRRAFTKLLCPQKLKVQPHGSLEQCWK
Description: Sections (20 µm) cut from a frozen rat brain were pre-incubated in Tris-HCl buffer (50 mM, pH 7.4; EDTA 5 mM) for 15 min then incubated in 5 nM [^125I]WYE-230949 for 90 min at room temperature. Non-specific binding was defined in adjacent sections in the presence of 5 µM iodophenpropit dihydrobromide. Sections were washed (2×30 min in Tris buffer) and briefly (15 s) rinsed in distilled water before drying and apposition to Kodak Biomax for 24 h. These autoradiograms were generated only for visual comparison with those obtained ex vivo.

histamine H3 receptor [4] = biological target: T2, histamine H3 receptor; test: Ex vivo autoradiography (target to cerebellum ratios); assay type: in vivo
Description: Animal experiments were conducted under the UK Animals (Scientific Procedures) Act 1986. This work was approved by the ethical review committee at the University of Glasgow (PPL: 60/3436) prior to the start of study. Naïve male Sprague-Dawley rats (Harlan, UK), weighing 217 to 352 g were either conscious or anaesthetised (2.5–3% isoflurane via a tracheostomy and artificial ventilation in 70/30% N2O/O2) for the duration of the experiment. Anaesthetised rats had their respiration and temperature monitored throughout. [^125I]WYE-230949 was administered via a femoral vein cannula to anaesthetised rats or via the lateral tail vein to conscious rats. The injected dose for each rat was calculated by measuring the syringe in a dose calibrator before and after [^125I]WYE-230949 administration. The radioactive and radiochemical amounts administered to individual rats ranged from 12.6 to 24.5 MBq and 0.32 to 0.70 µg/kg respectively in all in vivo studies.
Regional brain uptake was determined by ex vivo autoradiography, studies were performed in both conscious and anaesthetised rats in order to investigate the effect of anaesthesia on [^125I]WYE-230949 uptake. At either 30 or 120 min following [^125I]WYE-230949 administration rats were killed by cervical dislocation. The brains were removed, frozen in isopentane at −42°C and stored at −20°C before sectioning (20 µm) in a cryostat (Bright Instrument Company Ltd). Three sections were taken every 400 µm for the entire length of the rat brain and thaw mounted onto poly-L-lysine coated slides. Sections were dried at room temperature and apposed to X-ray film (Kodak Biomax MR-1) for approximately 2 weeks. The resultant autoradiograms were analysed using computer-based densitometry (MCID, Imaging Research, Canada). Relative optical density (ROD) measurements were obtained from 14 ROIs defined with reference to a rat brain atlas. For each brain region examined, bilateral readings were obtained in triplicate and the average reading determined. ROD values in the cerebellum were used as a measure of non-specific binding. Specific binding was calculated as ROD in ROI/ROD in cerebellum.

T1 sequence (Q9QYN8 whole entry): as above

In the case of `O=C(c1ccc(Cn2cnc3cccc([125I])c32)cc1)N1CC[C@H](N2CCCC2)C1` [[^125I]WYE-230949], the “Non-specific binding as % of total binding” value ([1]; at 6.6±0.1 nM, defined with 10 µM iodophenpropit, n = 3) was 39±3%, the Bmax ([1]; whole rat brain homogenates, one-site binding model, n = 8) was 508.6±34.9 fmol/mg protein and 509 fmol/mg protein and the logD7.4 ([2]; octanol/phosphate buffer pH 7.4, n = 3) was 1.64±0.04. The logP ([2]; octanol/water, n = 3) was 1.59±0.04, the “regional distribution of binding in rat brain” value (histamine H3 receptor [3]) was “corresponded with known histamine H3 receptor distribution” and the “Target to cerebellum ratio” value (histamine H3 receptor [4]; Amygdala, 30 min, anaesthetised) was 1.10±0.02. For the same compound, the “Target to cerebellum ratio” value (histamine H3 receptor [4]; Amygdala, 30 min, conscious) was 1.12±0.04, the “Target to cerebellum ratio” value (histamine H3 receptor [4]; Amygdala, 120 min, anaesthetised) was 1.16±0.03 and the “Target to cerebellum ratio” value (histamine H3 receptor [4]; Amygdala, 120 min, conscious) was 1.26±0.03. The “Target to cerebellum ratio” value (histamine H3 receptor [4]; Anterior Cortex, 30 min, anaesthetised) was 1.09±0.03, the “Target to cerebellum ratio” value (histamine H3 receptor [4]; Anterior Cortex, 30 min, conscious) was 1.15 ± 0.02 and the “Target to cerebellum ratio” value (histamine H3 receptor [4]; Anterior Cortex, 120 min, anaesthetised) was 1.10±0.02. The “Target to cerebellum ratio” value (histamine H3 receptor [4]; Anterior Cortex, 120 min, conscious) was 1.16±0.02, the “Target to cerebellum ratio” value (histamine H3 receptor [4]; Caudate Putamen, 30 min, anaesthetised) was 1.13±0.03 and the “Target to cerebellum ratio” value (histamine H3 receptor [4]; Caudate Putamen, 30 min, conscious) was 1.17±0.03. The “Target to cerebellum ratio” value (histamine H3 receptor [4]; Caudate Putamen, 120 min, anaesthetised) was 1.20±0.04, the “Target to cerebellum ratio” value (histamine H3 receptor [4]; Caudate Putamen, 120 min, conscious) was 1.32±0.04 and the “Target to cerebellum ratio” value (histamine H3 receptor [4]; Choroid Plexus, 30 min, anaesthetised) was 1.73±0.06. For the same compound, the “Target to cerebellum ratio” value (histamine H3 receptor [4]; Choroid Plexus, 30 min, conscious) was 2.68±0.04, the “Target to cerebellum ratio” value (histamine H3 receptor [4]; Choroid Plexus, 120 min, anaesthetised) was 1.79±0.10 and the “Target to cerebellum ratio” value (histamine H3 receptor [4]; Choroid Plexus, 120 min, conscious) was 2.66±0.11. The “Target to cerebellum ratio” value (histamine H3 receptor [4]; Hippocampus, 30 min, anaesthetised) was 1.08±0.03, the “Target to cerebellum ratio” value (histamine H3 receptor [4]; Hippocampus, 30 min, conscious) was 1.06±0.02 and the “Target to cerebellum ratio” value (histamine H3 receptor [4]; Hippocampus, 120 min, anaesthetised) was 1.08±0.01. The “Target to cerebellum ratio” value (histamine H3 receptor [4]; Hippocampus, 120 min, conscious) was 1.10±0.02, the “Target to cerebellum ratio” value (histamine H3 receptor [4]; Hypothalamus, 30 min, anaesthetised) was 1.16±0.03 and the “Target to cerebellum ratio” value (histamine H3 receptor [4]; Hypothalamus, 30 min, conscious) was 1.13±0.03. The “Target to cerebellum ratio” value (histamine H3 receptor [4]; Hypothalamus, 120 min, anaesthetised) was 1.18±0.03, the “Target to cerebellum ratio” value (histamine H3 receptor [4]; Hypothalamus, 120 min, conscious) was 1.18±0.02 and the “Target to cerebellum ratio” value (histamine H3 receptor [4]; Medial Cortex, 30 min, anaesthetised) was 1.10±0.03. The “Target to cerebellum ratio” value (histamine H3 receptor [4]; Medial Cortex, 30 min, conscious) was 1.22±0.03, the “Target to cerebellum ratio” value (histamine H3 receptor [4]; Medial Cortex, 120 min, anaesthetised) was 1.12±0.02 and the “Target to cerebellum ratio” value (histamine H3 receptor [4]; Medial Cortex, 120 min, conscious) was 1.21±0.02. The “Target to cerebellum ratio” value (histamine H3 receptor [4]; Nucleus Accumbens (Core), 30 min, anaesthetised) was 1.12±0.03, the “Target to cerebellum ratio” value (histamine H3 receptor [4]; Nucleus Accumbens (Core), 30 min, conscious) was 1.15±0.03 and the “Target to cerebellum ratio” value (histamine H3 receptor [4]; Nucleus Accumbens (Core), 120 min, anaesthetised) was 1.24±0.04. For the same compound, the “Target to cerebellum ratio” value (histamine H3 receptor [4]; Nucleus Accumbens (Core), 120 min, conscious) was 1.36±0.03, the “Target to cerebellum ratio” value (histamine H3 receptor [4]; Nucleus Accumbens (Shell), 30 min, anaesthetised) was 1.12±0.02 and the “Target to cerebellum ratio” value (histamine H3 receptor [4]; Nucleus Accumbens (Shell), 30 min, conscious) was 1.17±0.06. For the same compound, the “Target to cerebellum ratio” value (histamine H3 receptor [4]; Nucleus Accumbens (Shell), 120 min, anaesthetised) was 1.24±0.04, the “Target to cerebellum ratio” value (histamine H3 receptor [4]; Nucleus Accumbens (Shell), 120 min, conscious) was 1.33±0.05 and the “Target to cerebellum ratio” value (histamine H3 receptor [4]; Posterior Cortex, 30 min, anaesthetised) was 1.08±0.03. For the same compound, the “Target to cerebellum ratio” value (histamine H3 receptor [4]; Posterior Cortex, 30 min, conscious) was 1.18±0.03, the “Target to cerebellum ratio” value (histamine H3 receptor [4]; Posterior Cortex, 120 min, anaesthetised) was 1.13±0.03 and the “Target to cerebellum ratio” value (histamine H3 receptor [4]; Posterior Cortex, 120 min, conscious) was 1.26±0.02. For the same compound, the “Target to cerebellum ratio” value (histamine H3 receptor [4]; Substantia Nigra, 30 min, anaesthetised) was 1.19±0.03, the “Target to cerebellum ratio” value (histamine H3 receptor [4]; Substantia Nigra, 30 min, conscious) was 1.10±0.02 and the “Target to cerebellum ratio” value (histamine H3 receptor [4]; Substantia Nigra, 120 min, anaesthetised) was 1.26±0.04. The “Target to cerebellum ratio” value (histamine H3 receptor [4]; Substantia Nigra, 120 min, conscious) was 1.26±0.03, the “Target to cerebellum ratio” value (histamine H3 receptor [4]; Thalamus, 30 min, anaesthetised) was 1.10±0.03 and the “Target to cerebellum ratio” value (histamine H3 receptor [4]; Thalamus, 30 min, conscious) was 1.11±0.02. The “Target to cerebellum ratio” value (histamine H3 receptor [4]; Thalamus, 120 min, anaesthetised) was 1.09±0.02, the “Target to cerebellum ratio” value (histamine H3 receptor [4]; Thalamus, 120 min, conscious) was 1.08±0.02 and the “ratio of specific to non-specific binding” value (histamine H3 receptor [4]; all brain ROIs, conscious and anaesthetised rats) was “less than 1.4”.
